Results: patent US10780092B2, “Fused pyrazine derivatives useful as soluble guanylate cyclase stimulators” (Merck Sharp & Dohme Corp., priority 2016, dated 2020)
pEC50, pKi: −log10 of the molar value.

Legend:
sGC α1/β1 heterodimer = sGC α1/β1 heterodimer (Homo sapiens (Human), UniProt Q02108+Q02153); assay: Cell-based sGC functional assay (CASA assay), cGMP by HTRF; conditions: CHO-K1/sGC cells; for Emax: CHO-K1, cGMP production as percentage of maximum of compound A (set to 100%), read-out: % Activation; for pEC50: inflection point of cGMP production, 4P fit, read-out: IP
From the text: Cell-Based sGC Functional Assay (Cyclic GMP Assay for sGC Activator: CASA Assay)
Soluble guanylate cyclase (sGC) is a heme-containing enzyme that converts GTP to secondary messenger cGMP. Increases in cGMP levels affect several physiological processes including vasorelaxation through multiple downstream pathways. […] Heme-dependent activators (HDAs) preferentially target sGC containing a ferrous heme group. To determine the effect of sGC activators on enzyme activity, the CASA assay was developed to monitor the generation of cGMP in a cell line that stably expresses the heterodimeric sGC protein.
A CHO-K1 cell line stably expressing the sGC α1/β1 heterodimer was generated using a standard transfection protocol. The cDNA's encoding human sGC α1 and β1 were cloned in pIRES hyg and pIRES neo respectively using standard molecular biology techniques. The plasmids pIRES hyg and pIRES neo plasmids were obtained from Clontech. CHO-K1 cells were transfected with plasmids pIREShyg-hsGCα1 and pIRESneo-hsGCβ1 simultaneously using FUGENE reagent. Clones that stably express both subunits were selected with hygromycin and neomycin for ˜2 weeks. The clone chosen for the assay was designated CHO-K1/sGC. CHO-K1/sGC cells were maintained in F-K12 medium containing 10% heat-inactivated Fetal Bovine Serum (FBS), 100 μg/mL penicillin/streptomycin, 0.5 mg/mL hygromycin and 0.25 mg/mL G418. The cells were then cryopreserved in liquid nitrogen. On the day of the assay, the cells were thawed and resuspended in EBSS Assay Buffer (Sigma, E3024) supplemented with 5 mM MgCl2, 10 mM HEPES (4-(2-hydroxyethyl)piperazine-1-ethanesulfonic acid) and 0.05% BSA (bovine serum albumin) and cell density was then adjusted to 2.25×10^5/mL with EAB. IBMX (3-isobutyl-1-methylxanthin, 0.5 mM) was added to inhibit degradation of cGMP. Compounds were diluted from DMSO stock solutions and added to the assay at a final DMSO concentration of 2.5%. Cells were pre-incubated in the presence and absence of 1 μM of Diethylenetriamine/nitric oxide adduct (DETA-NO; Sigma, 17018) for 30 min at 25° C. Compounds were subsequently added and incubated for 1 hr at 37° C. At the end of the incubation period, the reaction was terminated and the cells were lysed with the detection reagents from Cisbio Kits. The level of intracellular cGMP was determined using an HTRF-based assay kit (CisBio, 62GM2PEC), which detects the displacement of a fluorescence labeled cGMP from its specific antibody. The cGMP produced by test compounds was directly compared to the maximum cGMP production (this value was set to equal 100% activation) of the published sGC compound A (Example 1 in WO 2010/065275, published Jun. 10, 2010).
The test compounds' activities were then expressed as a percentage of compound A, the standard in every experiment. This percent activation was calculated either in the presence or absence of DETA-NO which was then plotted. Inflection points (IP) and maximum fold induction was derived using Abase analysis software for 4P fit.

[1] = target: human recombinant sGC enzyme (Homo sapiens (Human), UniProt Q02108+Q02153); assay: SEC competition binding assay with [3H] Compound B radioligand; conditions: displacement of 1.6 nM [3H] Compound B, 24 h at 37° C.
Experimental: The binding potencies of sGC compounds to the human recombinant sGC enzyme were determined in a Size Exclusion Chromatography (SEC) competition binding assay using [^3H] Compound B as the radioligand. [^3H] Compound B was prepared using a standardardized tritium exchange procedure. The parent (non-labeled) molecule was first iodinated then a Pd-catalyzed iodine to tritium exchange provided the labeled compound.
Method: The binding buffer was composed of 50 mM triethanolamine pH 7.4, 3 mM MgCl2, 0.025% BSA, 2 mM dithiothreitol (DTT), 300 μM DETA/NO and 400 μM GTP. Assays were conducted in 96-well plates in a total volume of 200 μL. Recombinant human sGC protein (40 ng) was incubated with 1.6 nM [^3H] Compound B for 24 h at 37° C. in the presence and absence of various concentrations of sGC testing compounds delivered as DMSO solutions to give a total of 1% organic solvent content. Non-specific binding was defined by competition with 1 μM of Compound B. After the incubation period, the binding mixtures were loaded onto the gel-filtration plate (ThermoFischer Cat. No. 89808) pre-equilibrated with binding buffer and spun at 1000×g for 3 min at 4° C. on a Bench top centrifuge. The collected eluates in White Frame Clear Well Isoplates (Perkin Elmer Cat #6005040) received 100 μl of UltimaGold scintillation cocktail. The sealed plates were shaken vigorously and span, and counted after 6 hs with a Wallac Microbeta TriLux 1450 LSC & Luminescence Counter (Perkin Elmer). Data from competition experiments were analyzed to determine Ki values using one site—fit Ki equation.

Structure (SMILES) | Emax (sGC α1/β1 heterodimer) | pEC50 (sGC α1/β1 heterodimer) | pKi [1]
CC1(c2cc(O)c(Cl)c(F)c2)C(=O)Nc2nc(-c3cn4ncnc4c(Cc4ccccc4F)n3)nc(N)c21 (stereo not drawn) [Example 10-B, 4-Amino-5-(4-chloro-3-fluoro-5-hydroxyphenyl)-2-{8-[(2-fluorophenyl)methyl]-[1,2,4]triazolo[1,5-a]pyrazin-6-yl}-5-methyl-5,7-dihydro-6H-pyrrolo[2,3-d]pyrimidin-6-one] | 132% | 7.60 | 9.89
CC1(c2cc(O)c(Cl)c(F)c2)C(=O)Nc2nc(-c3cn4ccnc4c(CC4CCCCC4)n3)nc(N)c21 (stereo not drawn) [Example 12-B, 4-Amino-5-(4-chloro-3-fluoro-5-hydroxyphenyl)-2-(8-(cyclohexylmethyl)imidazo[1,2-a]pyrazin-6-yl)-5-methyl-5,7-dihydro-6H-pyrrolo[2,3-d]pyrimidin-6-one] | 116% | 7.01 | 9.82
CC1(c2cc(O)c(C#N)c(F)c2)C(=O)Nc2nc(-c3cn4ncnc4c(CC4CCCCC4)n3)nc(N)c21 (stereo not drawn) [Example 15-B, 4-(4-Amino-2-(8-(cyclohexylmethyl)-[1,2,4]triazolo[1,5-a]pyrazin-6-yl)-5-methyl-6-oxo-6,7-dihydro-5H-pyrrolo[2,3-d]pyrimidin-5-yl)-2-fluoro-6-hydroxybenzonitrile] | 107% | 6.11 | 9.80
CC1(c2cc(O)c(Cl)c(F)c2)C(=O)Nc2nc(-c3cn4ccnc4c(Cc4cc(F)cc(F)c4)n3)nc(N)c21 (stereo not drawn) [Example 16-B, 4-Amino-5-(4-chloro-3-fluoro-5-hydroxyphenyl)-2-{8-[(3,5-difluorophenyl)methyl]imidazo[1,2-a]pyrazin-6-yl}-5-methyl-5,7-dihydro-6H-pyrrolo[2,3-d]pyrimidin-6-one] | 94% | 6.51 | 9.80
CC1(c2ccc(C(F)(F)F)c(O)c2)C(=O)Nc2nc(-c3cn4ccnc4c(Cc4cccc(F)c4)n3)nc(N)c21 (stereo not drawn) [Example 17-B, 4-Amino-2-{8-[(3-fluorophenyl)methyl]imidazo[1,2-a]pyrazin-6-yl}-5-(3-hydroxy-4-(trifluoromethyl)phenyl)-5-methyl-5,7-dihydro-6H-pyrrolo[2,3-d]pyrimidin-6-one] | 117% | 6.32 | 9.79
CC1(c2ccc(Cl)c(O)c2)C(=O)Nc2nc(-c3cn4ccnc4c(Cc4cc(F)ccc4F)n3)nc(N)c21 (stereo not drawn) [Example 19-A, 4-Amino-5-(4-chloro-3-hydroxyphenyl)-2-{8-[(2,5-difluorophenyl)methyl]imidazo[1,2-a]pyrazin-6-yl}-5-methyl-5,7-dihydro-6H-pyrrolo[2,3-d]pyrimidin-6-one] | 152% | 7.11 | 9.77
CC1(c2ccc(Cl)c(O)c2)C(=O)Nc2nc(-c3cn4ccnc4c(Cc4ccc(F)c(F)c4)n3)nc(N)c21 (stereo not drawn) [Example 20-A, 4-Amino-5-(4-chloro-3-hydroxyphenyl)-2-{8-[(3,4-difluorophenyl)methyl]imidazo[1,2-a]pyrazin-6-yl}-5-methyl-5,7-dihydro-6H-pyrrolo[2,3-d]pyrimidin-6-one] | 130% | 6.90 | 9.76
CC1(c2cc(O)c(Cl)c(F)c2)C(=O)Nc2nc(-c3cn4ncnc4c(CC4CCCCC4)n3)nc(N)c21 (stereo not drawn) [Example 21-B, 4-Amino-5-(4-chloro-3-fluoro-5-hydroxyphenyl)-2-(8-(cyclohexylmethyl)-[1,2,4]triazolo[1,5-a]pyrazin-6-yl)-5-methyl-5,7-dihydro-6H-pyrrolo[2,3-d]pyrimidin-6-one] | 143% | 7.02 | 9.69
CC1(c2ccc(F)c(O)c2)C(=O)Nc2nc(-c3cn4ccnc4c(Cc4ccc(F)cc4F)n3)nc(N)c21 (stereo not drawn) [Example 22-B, 4-Amino-2-{8-[(2,4-difluorophenyl)methyl]imidazo[1,2-a]pyrazin-6-yl}-5-(4-fluoro-3-hydroxyphenyl)-5-methyl-5,7-dihydro-6H-pyrrolo[2,3-d]pyrimidin-6-one] | 128% | 7.13 | 9.67
CC1(c2ccc(O)c(F)c2)C(=O)Nc2nc(-c3cn4ccnc4c(Cc4ccccc4F)n3)nc(N)c21 (stereo not drawn) [Example 24-B, 4-Amino-5-(3-fluoro-4-hydroxyphenyl)-2-{8-[(2-fluorophenyl)methyl]imidazo[1,2-a]pyrazin-6-yl}-5-methyl-5,7-dihydro-6H-pyrrolo[2,3-d]pyrimidin-6-one] | 88% | 6.12 | 9.62
CC1(c2ccc(Cl)c(O)c2)C(=O)Nc2nc(-c3cn4ncnc4c(Cc4ccc(F)cc4)n3)nc(N)c21 (stereo not drawn) [Example 26-A, 4-Amino-5-(4-chloro-3-hydroxyphenyl)-2-{8-[(4-fluorophenyl)methyl]-[1,2,4]triazolo[1,5-a]pyrazin-6-yl}-5-methyl-5,7-dihydro-6H-pyrrolo[2,3-d]pyrimidin-6-one] | 105% | 6.37 | 9.56
CC1(c2cc(O)c(C#N)c(F)c2)C(=O)Nc2nc(-c3cn4ncnc4c(Cc4cc(F)cc(F)c4)n3)nc(N)c21 (stereo not drawn) [Example 27-B, 4-(4-Amino-2-{8-[(3,5-difluorophenyl)methyl]-[1,2,4]triazolo[1,5-a]pyrazin-6-yl}-5-methyl-6-oxo-6,7-dihydro-5H-pyrrolo[2,3-d]pyrimidin-5-yl)-2-fluoro-6-hydroxybenzonitrile] | 94% | 6.31 | 9.55
CC1(c2ccc(Cl)c(O)c2)C(=O)Nc2nc(-c3cn4ccnc4c(Cc4ccc(F)cc4)n3)nc(N)c21 (stereo not drawn) [Example 30-A, 4-Amino-5-(4-chloro-3-hydroxyphenyl)-2-{8-[(4-fluorophenyl)methyl]imidazo[1,2-a]pyrazin-6-yl}-5-methyl-5,7-dihydro-6H-pyrrolo[2,3-d]pyrimidin-6-one] | 88% | 6.06 | 9.53
CC1(c2cccc(O)c2)C(=O)Nc2nc(-c3cn4ccnc4c(Cc4ccc(F)cc4)n3)nc(N)c21 (stereo not drawn) [Example 31-B, 4-Amino-2-{8-[(4-fluorophenyl)methyl]imidazo[1,2-a]pyrazin-6-yl}-5-(3-hydroxyphenyl)-5-methyl-5,7-dihydro-6H-pyrrolo[2,3-d]pyrimidin-6-one] | 93% | 7.09 | 9.56
CC(C)CCc1nc(-c2nc(N)c3c(n2)NC(=O)C3(C)c2cc(O)c(Cl)c(F)c2)cn2ccnc12 (stereo not drawn) [Example 32-B, 4-Amino-5-(4-chloro-3-fluoro-5-hydroxyphenyl)-2-(8-isopentylimidazo[1,2-a]pyrazin-6-yl)-5-methyl-5,7-dihydro-6H-pyrrolo[2,3-d]pyrimidin-6-one] | 107% | 6.19 | 9.51
